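Tested at 5 concentrations; 48 h exposure; 96-well plates; endpoints linearly interpolated, else capped at highest concentration. Here, GI50 denotes the concentration required for 50% inhibition of growth. TGI denotes the concentration required for complete inhibition of growth.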
Each molecule was assayed on U251 CNS (assay: NCI-60 cell line screen, 48 h).
Molecule `Cc1nc2sc(C(=O)Nc3cccc(Cl)c3C)c(N)c2cc1C(=O)/C=C/c1ccccc1` has a GI50 of 0.252 µM and a TGI of 0.981 µM. For `CC(C)c1ccc(C(=O)Nc2nc3ccc(O)cc3s2)cc1`, the GI50 was 9.32 µM and the TGI was > 100 µM. Molecule `C=C1C(=O)O[C@H]2[C@H]1CC/C(CNC(=O)c1cc3cc(OC)ccc3[nH]1)=C\CC[C@@]1(C)O[C@@H]21` has a GI50 of 3.35 µM and a TGI of 12.6 µM. `O=S(=O)(NC1=NCCN1C(=S)SN1CCn2c1nsc2=S)c1ccc(Br)cc1` was tested, and the GI50 was 38.9 µM and the TGI was > 100 µM. For `O=C1c2ccccc2-c2c1c1ccccc1c(=O)n2CCCNCCCn1ccnc1`, the GI50 was 0.285 µM and the TGI was 1.42 µM. For `ClCc1cccc(Cn2cnc3c(NC45CC6CC(CC(C6)C4)C5)ncnc32)c1`, the GI50 was 14.8 µM and the TGI was 30.8 µM. With `CC(=O)CC(=O)Nc1ccc2ccccc2c1` the TGI was > 100 µM. Molecule `COC(=O)c1cc2c(cc1Cl)SC(N(N(C)C)S(=O)(=O)c1ccc(Br)s1)=NS2(=O)=O` has a GI50 of 30.2 µM and a TGI of 88.2 µM. For `O=c1c2cc(Cl)ccc2oc2ccc(OCCCCCN3CCCCC3)cc12`, the GI50 was 6.12 µM and the TGI was 12.7 µM. For `O=C1c2ccccc2C(=O)N1CCCSc1ccccc1`, the TGI was > 100 µM. In the case of `CCOC(=O)Nc1nc2ccc(Cn3cccc3)cc2[nH]1`, the TGI was > 64.8 µM. Work on `COc1cc(Nc2nccc(Nc3ccc4c(C)[nH]nc4c3)n2)cc(OC)c1OC` yielded a GI50 of 3.92 µM and a TGI of 17.8 µM. Work on `COc1ccc(/C=N\NC(=O)CN2CCN(c3cc4c(cc3F)c(=O)c(C(=O)N/N=C/c3ccc(OC)c(OC)c3)cn4C3CC3)CC2)cc1OC` yielded a GI50 of 2.29 µM and a TGI of 6.29 µM.

What follows are molecules tested on SF-539 CNS (assay: NCI-60 cell line screen, 48 h).
Work on `Cc1nc2sc(C(=O)Nc3cccc(Cl)c3C)c(N)c2cc1C(=O)/C=C/c1ccccc1` yielded a GI50 of 0.595 µM and a TGI of 1.43 µM. `CC(C)c1ccc(C(=O)Nc2nc3ccc(O)cc3s2)cc1` gave a GI50 of 1.22 µM and a TGI of 11.6 µM. `C=C1C(=O)O[C@H]2[C@H]1CC/C(CNC(=O)c1cc3cc(OC)ccc3[nH]1)=C\CC[C@@]1(C)O[C@@H]21` gave a GI50 of 1.42 µM and a TGI of 3 µM. In the case of `O=S(=O)(NC1=NCCN1C(=S)SN1CCn2c1nsc2=S)c1ccc(Br)cc1`, the GI50 was 18.6 µM and the TGI was 38.9 µM. Molecule `O=C1c2ccccc2-c2c1c1ccccc1c(=O)n2CCCNCCCn1ccnc1` has a GI50 of 0.908 µM and a TGI of 2.48 µM. Work on `ClCc1cccc(Cn2cnc3c(NC45CC6CC(CC(C6)C4)C5)ncnc32)c1` yielded a GI50 of 16.9 µM and a TGI of 32.4 µM. For `CC(=O)CC(=O)Nc1ccc2ccccc2c1`, the TGI was > 100 µM. In the case of `COC(=O)c1cc2c(cc1Cl)SC(N(N(C)C)S(=O)(=O)c1ccc(Br)s1)=NS2(=O)=O`, the GI50 was 21.2 µM and the TGI was 51.5 µM. `O=c1c2cc(Cl)ccc2oc2ccc(OCCCCCN3CCCCC3)cc12` was tested, and the GI50 was 4.21 µM and the TGI was 10.6 µM. In the case of `O=C1c2ccccc2C(=O)N1CCCSc1ccccc1`, the TGI was > 100 µM. `CCOC(=O)Nc1nc2ccc(Cn3cccc3)cc2[nH]1` gave a TGI of 7.09 µM. `COc1cc(Nc2nccc(Nc3ccc4c(C)[nH]nc4c3)n2)cc(OC)c1OC` gave a GI50 of 1.72 µM and a TGI of 6.11 µM. `COc1ccc(/C=N\NC(=O)CN2CCN(c3cc4c(cc3F)c(=O)c(C(=O)N/N=C/c3ccc(OC)c(OC)c3)cn4C3CC3)CC2)cc1OC` gave a GI50 of 2.38 µM and a TGI of 6.46 µM.

These molecules were tested on UACC-62 melanoma (assay: NCI-60 cell line screen, 48 h).
In the case of `Cc1nc2sc(C(=O)Nc3cccc(Cl)c3C)c(N)c2cc1C(=O)/C=C/c1ccccc1`, the GI50 was 0.303 µM and the TGI was 1.91 µM. `CC(C)c1ccc(C(=O)Nc2nc3ccc(O)cc3s2)cc1` was tested, and the GI50 was 0.124 µM and the TGI was > 100 µM. `C=C1C(=O)O[C@H]2[C@H]1CC/C(CNC(=O)c1cc3cc(OC)ccc3[nH]1)=C\CC[C@@]1(C)O[C@@H]21` gave a GI50 of 1.52 µM and a TGI of 3.61 µM. With `O=S(=O)(NC1=NCCN1C(=S)SN1CCn2c1nsc2=S)c1ccc(Br)cc1` the GI50 was 25.2 µM and the TGI was 94.3 µM. Work on `O=C1c2ccccc2-c2c1c1ccccc1c(=O)n2CCCNCCCn1ccnc1` yielded a GI50 of 1.72 µM and a TGI of 5.95 µM. `ClCc1cccc(Cn2cnc3c(NC45CC6CC(CC(C6)C4)C5)ncnc32)c1` gave a GI50 of 16.3 µM and a TGI of 36.5 µM. In the case of `CC(=O)CC(=O)Nc1ccc2ccccc2c1`, the TGI was > 100 µM. `COC(=O)c1cc2c(cc1Cl)SC(N(N(C)C)S(=O)(=O)c1ccc(Br)s1)=NS2(=O)=O` showed a GI50 of 21.4 µM and a TGI of 50.6 µM. For `O=c1c2cc(Cl)ccc2oc2ccc(OCCCCCN3CCCCC3)cc12`, the GI50 was 1.01 µM and the TGI was 2.06 µM. `O=C1c2ccccc2C(=O)N1CCCSc1ccccc1` was tested, and the TGI was > 100 µM. With `CCOC(=O)Nc1nc2ccc(Cn3cccc3)cc2[nH]1` the TGI was > 100 µM. With `COc1cc(Nc2nccc(Nc3ccc4c(C)[nH]nc4c3)n2)cc(OC)c1OC` the GI50 was 1.08 µM and the TGI was 4.82 µM. `COc1ccc(/C=N\NC(=O)CN2CCN(c3cc4c(cc3F)c(=O)c(C(=O)N/N=C/c3ccc(OC)c(OC)c3)cn4C3CC3)CC2)cc1OC` was tested, and the GI50 was 2.21 µM and the TGI was 4.83 µM.

What follows are molecules tested on HCT-116 colon (assay: NCI-60 cell line screen, 48 h).
Molecule `Cc1nc2sc(C(=O)Nc3cccc(Cl)c3C)c(N)c2cc1C(=O)/C=C/c1ccccc1` has a GI50 of 0.186 µM and a TGI of 0.707 µM. `CC(C)c1ccc(C(=O)Nc2nc3ccc(O)cc3s2)cc1` was tested, and the GI50 was 0.468 µM and the TGI was > 100 µM. Molecule `C=C1C(=O)O[C@H]2[C@H]1CC/C(CNC(=O)c1cc3cc(OC)ccc3[nH]1)=C\CC[C@@]1(C)O[C@@H]21` has a GI50 of 0.645 µM and a TGI of 2.07 µM. `O=S(=O)(NC1=NCCN1C(=S)SN1CCn2c1nsc2=S)c1ccc(Br)cc1` was tested, and the GI50 was 24.7 µM and the TGI was 73.2 µM. Molecule `O=C1c2ccccc2-c2c1c1ccccc1c(=O)n2CCCNCCCn1ccnc1` has a GI50 of 0.598 µM and a TGI of 2.01 µM. `ClCc1cccc(Cn2cnc3c(NC45CC6CC(CC(C6)C4)C5)ncnc32)c1` was tested, and the GI50 was 12.6 µM and the TGI was 30.4 µM. `CC(=O)CC(=O)Nc1ccc2ccccc2c1` was tested, and the TGI was > 100 µM. In the case of `COC(=O)c1cc2c(cc1Cl)SC(N(N(C)C)S(=O)(=O)c1ccc(Br)s1)=NS2(=O)=O`, the GI50 was 26.6 µM and the TGI was 73.6 µM. For `O=c1c2cc(Cl)ccc2oc2ccc(OCCCCCN3CCCCC3)cc12`, the GI50 was 1.75 µM and the TGI was 6.8 µM. For `O=C1c2ccccc2C(=O)N1CCCSc1ccccc1`, the TGI was > 100 µM. `CCOC(=O)Nc1nc2ccc(Cn3cccc3)cc2[nH]1` was tested, and the TGI was > 100 µM. `COc1cc(Nc2nccc(Nc3ccc4c(C)[nH]nc4c3)n2)cc(OC)c1OC` gave a GI50 of 2.26 µM and a TGI of 6.42 µM. Molecule `COc1ccc(/C=N\NC(=O)CN2CCN(c3cc4c(cc3F)c(=O)c(C(=O)N/N=C/c3ccc(OC)c(OC)c3)cn4C3CC3)CC2)cc1OC` has a GI50 of 3.15 µM and a TGI of 11.4 µM.

These molecules were tested on CAKI-1 renal (assay: NCI-60 cell line screen, 48 h).
`Cc1nc2sc(C(=O)Nc3cccc(Cl)c3C)c(N)c2cc1C(=O)/C=C/c1ccccc1` was tested, and the GI50 was 0.417 µM and the TGI was 1.17 µM. In the case of `CC(C)c1ccc(C(=O)Nc2nc3ccc(O)cc3s2)cc1`, the GI50 was 0.845 µM and the TGI was > 100 µM. In the case of `C=C1C(=O)O[C@H]2[C@H]1CC/C(CNC(=O)c1cc3cc(OC)ccc3[nH]1)=C\CC[C@@]1(C)O[C@@H]21`, the GI50 was 1.97 µM and the TGI was 6.25 µM. With `O=S(=O)(NC1=NCCN1C(=S)SN1CCn2c1nsc2=S)c1ccc(Br)cc1` the GI50 was 12.6 µM and the TGI was > 100 µM. `O=C1c2ccccc2-c2c1c1ccccc1c(=O)n2CCCNCCCn1ccnc1` was tested, and the GI50 was 0.446 µM and the TGI was 2.95 µM. `ClCc1cccc(Cn2cnc3c(NC45CC6CC(CC(C6)C4)C5)ncnc32)c1` showed a GI50 of 16.8 µM and a TGI of 33.2 µM. With `CC(=O)CC(=O)Nc1ccc2ccccc2c1` the TGI was > 100 µM. Work on `COC(=O)c1cc2c(cc1Cl)SC(N(N(C)C)S(=O)(=O)c1ccc(Br)s1)=NS2(=O)=O` yielded a GI50 of 28.3 µM and a TGI of 60.7 µM. `O=c1c2cc(Cl)ccc2oc2ccc(OCCCCCN3CCCCC3)cc12` showed a GI50 of 3.24 µM and a TGI of 9.84 µM. In the case of `O=C1c2ccccc2C(=O)N1CCCSc1ccccc1`, the TGI was > 100 µM. In the case of `CCOC(=O)Nc1nc2ccc(Cn3cccc3)cc2[nH]1`, the TGI was > 100 µM. `COc1cc(Nc2nccc(Nc3ccc4c(C)[nH]nc4c3)n2)cc(OC)c1OC` showed a GI50 of 1.05 µM and a TGI of 4.62 µM. `COc1ccc(/C=N\NC(=O)CN2CCN(c3cc4c(cc3F)c(=O)c(C(=O)N/N=C/c3ccc(OC)c(OC)c3)cn4C3CC3)CC2)cc1OC` gave a GI50 of 9.49 µM and a TGI of 91.9 µM.

Reference: PubChem BioAssay (NCI)
